Assay results published in patent US20250129103A1, “METHODS FOR TREATMENT OF CANCER” (Frontier Medicines Corporation, priority 2022, published 2025).
pIC50: −log10 of the molar value. In brackets after ≈: the same amount, converted by molar mass.

Key:
[1] = target: KRAS G12C (GMPPNP-loaded) and cRAF (Ras-binding domain) interaction (Homo sapiens (Human), UniProt P01116, C118S/C51S/C80L/G12C); assay: Inhibition of KRAS G12C and cRAF binding (AlphaScreen); conditions: KRAS G12C loaded with GMPPNP, cRaf RBD, 2 hours preincubation; read-out: Raf-1 RBD K-Ras IC50
How it was run: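 AlphaScreen readout (680 nm excitation, 570 nm emission) of RBD binding after a 60-90 min bead step at room temperature. This step follows 2 h compound exposure of GMPPNP-preloaded KRAS G12C in Hepes pH 7.4 buffer with MgCl2 and 10 μM GMPPNP.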

[2] = target: KRAS G12C (GMPPNP-loaded) and PI3Ka (Ras-binding domain) interaction (Homo sapiens (Human), UniProt P01116, C118S/C51S/C80L/G12C); assay: Inhibition of KRAS G12C and PI3Ka binding (AlphaScreen); conditions: KRAS G12C loaded with GMPPNP, PI3Ka RBD, 2 hours preincubation; read-out: PI3K RBD K-Ras IC50
How it was run: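 Biotin-AviTag Cys-light KRAS G12C (aa 1-169, C51S/C80L/C118S), GMPPNP-loaded, 1.5 nM, preincubated 2 h with compound, then His-tagged PI3Ka RBD (aa 157-300, 100 nM) plus AlphaScreen beads added for 60-90 min, RT. Buffer Hepes pH 7.4, 10 μM GMPPNP, 2% DMSO; 10-point 1:3 from 50 μM; 4-parameter IC50.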

[3] = Determination of logD (1-octanol / phosphate buffer pH 7.4); format: physicochemical; conditions: 1-octanol/phosphate buffer, pH 7.4, pH 7.4, 1-octanol/phosphate buffer; read-out: Log D, pH 7.4
How it was run: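 Each phase analysed by LCMS after 1 h shaking at 800 rpm and centrifugation, room temperature. Phases were mutually saturated 1-octanol and 100 mM phosphate buffer at pH 7.4. LogD derived from the phase concentrations.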

[4] = Determination of kinetic solubility (pH 7.4); format: physicochemical; conditions: for solubility kinetic at 2 h: phosphate buffer, pH 7.4, aqueous buffer, kinetic from dmso stock, 50 mM phosphate buffer pH 7.4, read-out: Ksol, pH 7.4
How it was run: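 Solubility taken from filtrate peak areas on a calibration curve (HPLC-UV, LC-MS/MS). Before filtration and centrifugation, compound was shaken for 2 h at room temperature in pH 7.4 50 mM phosphate buffer.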

KRAS G12C (GMPPNP-loaded) and PI3Ka (Ras-binding domain) interaction, sequence (P01116 other isoform, or with tags, fused parts or gaps G12C/C51S/C80L/C118S): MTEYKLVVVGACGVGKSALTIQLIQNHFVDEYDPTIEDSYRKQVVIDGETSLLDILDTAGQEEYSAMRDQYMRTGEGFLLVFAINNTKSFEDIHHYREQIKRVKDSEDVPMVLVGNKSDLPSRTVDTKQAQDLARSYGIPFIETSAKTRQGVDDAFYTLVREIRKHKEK
KRAS G12C (GMPPNP-loaded) and cRAF (Ras-binding domain) interaction, sequence (P01116 other isoform, or with tags, fused parts or gaps G12C/C51S/C80L/C118S): as above

pIC50 [1] | pIC50 [2] | logD [3] | solubility kinetic at 2 h [4] [µg/mL] | Ksol, pH 7.4 (ug/mL) ([4]; 50 mM phosphate buffer pH 7.4) | Compound
> 8.00 | > 8.00 | 2.85 | 91 (≈ 122 µM) |  | N#CC[C@H]1CN(c2nc(OC[C@@]34CCCN3C[C@H](F)C4)nc3c(F)c(-c4cccc(Cl)c4C4CC4)ncc23)CCN1C(=O)/C=C/CN1C[C@@H]2C[C@H]1CO2 [Compound 277]
7.00 to 8.00 | 7.00 to 8.00 | 2.87 | 130 (≈ 186 µM) |  | CN1CC[C@@H]1/C=C/C(=O)N1CCN(c2nc(OC[C@@]34CCCN3C[C@H](F)C4)nc3c(F)c(-c4cccc(Cl)c4C4CC4)ncc23)C[C@@H]1CC#N [Compound 305]
> 8.00 | > 8.00 | 2.47 | 139 (≈ 195 µM) |  | Cc1cc(N)nc(C2Cc3nc(OC[C@@]45CCCN4C[C@H](F)C5)nc(N4CCN(C(=O)/C=C/CN(C)C)[C@@H](CC#N)C4)c3CC2C)c1C(F)(F)F (stereo partly shown) [Compound 315]
> 8.00 | > 8.00 | 3.05 | 104 (≈ 139 µM) |  | COCCN(C)C/C=C/C(=O)N1CCN(c2nc(OC[C@@]34CCCN3C[C@H](F)C4)nc3c(F)c(-c4cccc5cccc(Cl)c45)ncc23)C[C@@H]1CC#N [Compound 320]
> 8.00 | > 8.00 | 2.79 | 133 (≈ 186 µM) |  | Cc1cc(N)nc([C@@H]2Cc3nc(OC[C@@]45CCCN4C[C@H](F)C5)nc(N4CCN(C(=O)/C=C/CN(C)C)[C@@H](CC#N)C4)c3C[C@H]2C)c1C(F)(F)F [Compound 322]
7.00 to 8.00 | > 8.00 | 2.9 |  | 111.20 | Cc1noc(/C=C/C(=O)N2CCN(c3nc(OCC45CCCN4CCC5)nc4c3CCN(c3cccc5cccc(Cl)c35)C4)C[C@@H]2CC#N)n1 [Example 1, (S,E)-2-(4-(7-(8-chloronaphthalen-1-yl)-2-((hexahydro-1H-pyrrolizin-7a-yl)methoxy)-5,6,7,8-tetrahydropyrido[3,4-d]pyrimidin-4-yl)-1-(3-(3-methyl-1,2,4-oxadiazol-5-yl)acryloyl)piperazin-2-yl)acetonitrile]
7.00 to 8.00 | 7.00 to 8.00 | 3.54 | 3.98 (≈ 5.48 µM) |  | Cc1noc(/C=C/C(=O)N2CCN(c3nc(OC[C@@]45CCCN4C[C@H](F)C5)nc4c(F)c(-c5cccc6cccc(Cl)c56)ncc34)C[C@@H]2CC#N)n1 [Example 4, 2-((S)-4-(7-(8-chloronaphthalen-1-yl)-8-fluoro-2-(((2R,7aS)-2-fluorotetrahydro-1H-pyrrolizin-7a(5H)-yl)methoxy)pyrido[4,3-d]pyrimidin-4-yl)-1-((E)-3-(3-methyl-1,2,4-oxadiazol-5-yl)acryloyl)piperazin-2-yl)acetonitrile]
> 8.00 | > 8.00 | 3.78 | 0.01 (≈ 0.0129 µM) |  | N#CC[C@H]1CN(c2nc(OC[C@@]34CCCN3C[C@H](F)C4)nc3c2CCN(c2cccc4ccc(F)c(Cl)c24)C3)CCN1C(=O)/C=C/c1nc(C2COC2)no1 [Example 8, 2-((S)-4-(7-(8-chloro-7-fluoronaphthalen-1-yl)-2-(((2R,7aS)-2-fluorohexahydro-1H-pyrrolizin-7a-yl)methoxy)-5,6,7,8-tetrahydropyrido[3,4-d]pyrimidin-4-yl)-1-((E)-3-(3-(oxetan-3-yl)-1,2,4-oxadiazol-5-yl)acryloyl)piperazin-2-yl)acetonitrile]
> 8.00 | > 8.00 | 3.55 | 67 (≈ 94.4 µM) |  | Cc1nsc(/C=C/C(=O)N2CCN(c3nc(OCC45CCCN4CCC5)nc4c3CCN(c3cccc5cccc(Cl)c35)C4)C[C@@H]2CC#N)n1 [Example 9, (S,E)-2-(4-(7-(8-chloronaphthalen-1-yl)-2-((hexahydro-1H-pyrrolizin-7a-yl)methoxy)-5,6,7,8-tetrahydropyrido[3,4-d]pyrimidin-4-yl)-1-(3-(3-methyl-1,2,4-thiadiazol-5-yl)acryloyl)piperazin-2-yl)acetonitrile]
> 8.00 | > 8.00 | 2.93 | 99 (≈ 143 µM) |  | N#CC[C@H]1CN(c2nc(OCC34CCCN3CCC4)nc3c2CCN(c2cccc4cccc(Cl)c24)C3)CCN1C(=O)/C=C/c1ccncn1 [Example 10, (S,E)-2-(4-(7-(8-chloronaphthalen-1-yl)-2-((hexahydro-1H-pyrrolizin-7a-yl)methoxy)-5,6,7,8-tetrahydropyrido[3,4-d]pyrimidin-4-yl)-1-(3-(pyrimidin-4-yl)acryloyl)piperazin-2-yl)acetonitrile]
> 8.00 | > 8.00 | 4.49 | 0.04 (≈ 0.0515 µM) |  | CC(F)(F)c1noc(/C=C/C(=O)N2CCN(c3nc(OC[C@@]45CCCN4C[C@H](F)C5)nc4c(F)c(-c5cccc6cccc(Cl)c56)ncc34)C[C@@H]2CC#N)n1 [Example 14, 2-((S)-4-(7-(8-chloronaphthalen-1-yl)-8-fluoro-2-(((2R,7aS)-2-fluorotetrahydro-1H-pyrrolizin-7a(5H)-yl)methoxy)pyrido[4,3-d]pyrimidin-4-yl)-1-((E)-3-(3-(1,1-difluoroethyl)-1,2,4-oxadiazol-5-yl)acryloyl)piperazin-2-yl)acetonitrile]
> 8.00 | > 8.00 | 4.32 | 0.01 (≈ 0.0134 µM) |  | N#CC[C@H]1CN(c2nc(OCC34CCCN3CCC4)nc3c2CCN(c2cccc4cccc(Cl)c24)C3)CCN1C(=O)/C=C/c1nc(C(F)(F)F)no1 [Example 17, (S,E)-2-(4-(7-(8-chloronaphthalen-1-yl)-2-((hexahydro-1H-pyrrolizin-7a-yl)methoxy)-5,6,7,8-tetrahydropyrido[3,4-d]pyrimidin-4-yl)-1-(3-(3-(trifluoromethyl)-1,2,4-oxadiazol-5-yl)acryloyl)piperazin-2-yl)acetonitrile]
> 8.00 | > 8.00 | 3.25 | 124 (≈ 160 µM) |  | N#CC[C@H]1CN(c2nc(OC[C@@]34CCCN3C[C@H](F)C4)nc3c(F)c(-c4cccc5ccc(F)c(Cl)c45)ncc23)CCN1C(=O)/C=C/CN1CCCOCC1 [Example 70, 2-((S)-1-((E)-4-(1,4-oxazepan-4-yl)but-2-enoyl)-4-(7-(8-chloro-7-fluoronaphthalen-1-yl)-8-fluoro-2-(((2R,7aS)-2-fluorotetrahydro-1H-pyrrolizin-7a(5H)-yl)methoxy)pyrido[4,3-d]pyrimidin-4-yl)piperazin-2-yl)acetonitrile]
> 8.00 | > 8.00 | 2.9 | 88.9 (≈ 115 µM) |  | N#CC[C@H]1CN(c2nc(OC[C@@]34CCCN3C[C@H](F)C4)nc3c(F)c(-c4cccc5ccc(F)c(Cl)c45)ncc23)CCN1C(=O)/C=C/CN1C[C@@H]2C[C@H]1CO2 [Example 71, 2-((S)-1-((E)-4-((1S,4S)-2-oxa-5-azabicyclo[2.2.1]heptan-5-yl)but-2-enoyl)-4-(7-(8-chloro-7-fluoronaphthalen-1-yl)-8-fluoro-2-(((2R,7aS)-2-fluorotetrahydro-1H-pyrrolizin-7a(5H)-yl)methoxy)pyrido[4,3-d]pyrimidin-4-yl)piperazin-2-yl)acetonitrile]
> 8.00 | > 8.00 | 3.12 | 143 (≈ 185 µM) |  | N#CC[C@H]1CN(c2nc(OC[C@@]34CCCN3C[C@H](F)C4)nc3c(F)c(-c4cccc5ccc(F)c(Cl)c45)ncc23)CCN1C(=O)/C=C/CN1C[C@H]2C[C@@H]1CO2 [Example 72, 2-((S)-1-((E)-4-((1R,4R)-2-oxa-5-azabicyclo[2.2.1]heptan-5-yl)but-2-enoyl)-4-(7-(8-chloro-7-fluoronaphthalen-1-yl)-8-fluoro-2-(((2R,7aS)-2-fluorotetrahydro-1H-pyrrolizin-7a(5H)-yl)methoxy)pyrido[4,3-d]pyrimidin-4-yl)piperazin-2-yl)acetonitrile]

Compound | pIC50 [1] | pIC50 [2] | logD [3] | solubility kinetic at 2 h [4] [µg/mL] | Ksol, pH 7.4 (ug/mL) ([4]; 50 mM phosphate buffer pH 7.4)
N#CC[C@H]1CN(c2nc(OC[C@@]34CCCN3C[C@H](F)C4)nc3c(F)c(-c4cccc5ccc(F)c(Cl)c45)ncc23)CCN1C(=O)/C=C/CN1CC2CC(C1)O2 [Example 77, 2-((2S)-1-((E)-4-(6-oxa-3-azabicyclo[3.1.1]heptan-3-yl)but-2-enoyl)-4-(7-(8-chloro-7-fluoronaphthalen-1-yl)-8-fluoro-2-(((2R,7aS)-2-fluorotetrahydro-1H-pyrrolizin-7a(5H)-yl)methoxy)pyrido[4,3-d]pyrimidin-4-yl)piperazin-2-yl)acetonitrile] | > 8.00 | > 8.00 | 2.92 | 116 (≈ 151 µM) | 
